Experimental data as given in patent US11419803B2, “Skin darkening composition” (Conopco, Inc., priority 2017, dated 2022).

Experiments:
[1] = tested on: Neonatal foreskin primary human epidermal melanocytes; experiment: Melanin content assay; assay type: cell-based; settings: 72 hours, compared to vehicle control = 100
Protocol: (§1) All test compounds were purchased from SIGMA-ALDRICH as powders. They were tested at various concentrations in cell culture (see below). Forskolin (SIGMA Cat. # F6886) was used as reference comparators, as they have been reported to increase melanin content. Neonatal foreskin primary human epidermal melanocytes were procured from Cascade Biologicals (labelled passage P0). Melanocytes were maintained in Medium 254CF (Cascade Cat. # M-254CF-500) supplemented with human melanocyte growth supplement (Cascade; Cat. # S-002-5), hereafter referred to as MGM. Cells were maintained at 37° C. in a humidified incubator with 5% CO2 atmosphere.
(§2) 50,000 cells were seeded in 24 well plate in MGM; after 24 hours, cultures were treated with various concentrations of the test materials and left undisturbed for a further period of 72 hours. Comparative vehicle controls of 0.25% (v/v) DMSO were also set up in parallel, simultaneously. At the end of the incubation period, cell viability was determined using the calcein method.
After calcein fluorescence readings were obtained, cells were drained and added fresh 125 μl of 1N NaOH (in 10% DMSO) per well. Cells were lysed by resuspension and incubation (60° C./1 hour.). Then this lysate was transferred to a fresh […] and measured OD405 nm in a TECAN M1000 plate reader (estimate of relative melanin content).
(§3) Calcein fluorescence values were ratio converted in 0 to 100 scale (% viability), with 100 representing the value of the 0.25% DMSO sample. % Melanin content was calculated as the ratio between OD405 nm value of any sample to that of DMSO reference sample.
Normalized melanin content value was then calculated as 100*(% Melanin Content)/(% Cellular viability).
The percentage Increase in melanin content was estimated as [(Normalized melanin content)−100]

[2] = tested on: Neonatal foreskin primary human epidermal melanocytes; experiment: Cell viability, calcein method; assay type: cell-based
Protocol: as §1, §2
Briefly, cell culture spent media was removed and cells washed once with 0.4 ml of 1× PBS-Ca—Mg solution. Fresh 1 μM calcein-AM was added (0.2 ml/well), including to control wells without cells. Plates were covered with aluminium foil and incubated for 30 minutes. at 37° C. in the regular CO2 incubator. Calcein fluorescence was then measured (λmax 490 nm and λmax 520 nm) in TECAN® M1000 Infinite series plate reader.
as §3

## CCCCCCCCCCCOc1ccc(C(=O)O)cc1 [Example 5, 4-undecyloxybenzoic acid]
[1]; 10 micromolar
  % Melanin content: 136%
[1]; 15 micromolar
  % Melanin content: 146%
[1]; 20 micromolar
  % Melanin content: 134%
[1]; 25 micromolar
  % Melanin content: 120%
[2]; human, 72 h, 10 µM
  % Viability: 97%
[2]; human, 72 h, 15 µM
  % Viability: 100%
[2]; human, 72 h, 20 µM
  % Viability: 90%
[2]; human, 72 h, 25 µM
  % Viability: 79%

## CCCCCCCCOc1ccc(C(=O)O)cc1 [Example 3, 4-octyloxybenzoic acid]
[1]; 10 micromolar
  % Melanin content: 127%
[1]; 15 micromolar
  % Melanin content: 144%
[1]; 20 micromolar
  % Melanin content: 127%
[1]; 25 micromolar
  % Melanin content: 86%
[2]; human, 72 h, 10 µM
  % Viability: 101%
[2]; human, 72 h, 15 µM
  % Viability: 103%
[2]; human, 72 h, 20 µM
  % Viability: 100%
[2]; human, 72 h, 25 µM
  % Viability: 86%

## CCCCCCCCCOc1ccc(C(=O)O)cc1 [Example 4, 4-nonyloxybenzoic acid]
[1]; 5 micromolar
  % Melanin content: 126%
[1]; 10 micromolar
  % Melanin content: 129%
[1]; 15 micromolar
  % Melanin content: 136%
[1]; 20 micromolar
  % Melanin content: 130%
[1]; 25 micromolar
  % Melanin content: 137%
[2]; human, 72 h, 5 µM
  % Viability: 102%
[2]; human, 72 h, 10 µM
  % Viability: 109%
[2]; human, 72 h, 15 µM
  % Viability: 109%
[2]; human, 72 h, 20 µM
  % Viability: 103%
[2]; human, 72 h, 25 µM
  % Viability: 103%

## CCCCCCCOc1ccc(C(=O)O)cc1 [Example 2, 4-heptyloxybenzoic acid]
[1]; 10 micromolar
  % Melanin content: 117%
[1]; 15 micromolar
  % Melanin content: 126%
[1]; 20 micromolar
  % Melanin content: 129%
[1]; 25 micromolar
  % Melanin content: 137%
[2]; 10 micromolar, 72 hours, relative to 0.25% DMSO control = 100
  % Viability: 94%
[2]; 15 micromolar, 72 hours, relative to 0.25% DMSO control = 100
  % Viability: 96%
[2]; 20 micromolar, 72 hours, relative to 0.25% DMSO control = 100
  % Viability: 95%
[2]; 25 micromolar, 72 hours, relative to 0.25% DMSO control = 100
  % Viability: 96%

## CCCCCCCc1ccc(C(=O)O)cc1 [Example 1, 4-heptyl benzoic acid]
[1]; 6.25 micromolar
  % Melanin content: 124%
[1]; 12.5 micromolar
  % Melanin content: 129%
[1]; 25 micromolar
  % Melanin content: 113%
[2]; human, 72 h, 6.25 µM
  % Viability: 102%
[2]; human, 72 h, 12.5 µM
  % Viability: 102%
[2]; human, 72 h, 25 µM
  % Viability: 93%
